According to ChEMBL document CHEMBL1817568, “Novel hybrids of fluconazole and furanones: design, synthesis and antifungal activity” (2011):
In brackets after ≈: the same amount, converted by molar mass. Activity calls are given as the source filed them. No cut-off for these calls is given here.

Tests used:
[1] = tested on: Fusarium proliferatum; assay: Antifungal activity against Fusarium proliferatum ATCC 10052 at 4 ug/ml by broth dilution method; type: functional, organism-based
[2] = tested on: Aspergillus niger; assay: Antifungal activity against Aspergillus niger ATCC 16404 at 4 ug/ml by broth dilution method; type: functional, organism-based
[3] = tested on: Candida albicans; assay: Antifungal activity against Candida albicans ATCC 24433 at 4 ug/ml by broth dilution method; type: functional, organism-based
[4] = tested on: Aspergillus fumigatus; assay: Antifungal activity against Aspergillus fumigatus ATCC 46645 at 4 ug/ml by broth dilution method; type: functional, organism-based
[5] = tested on: Nakaseomyces glabratus; assay: Antifungal activity against Candida glabrata ATCC 90030 at 4 ug/ml by broth dilution method; type: functional, organism-based
[6] = tested on: Pichia kudriavzevii; assay: Antifungal activity against Candida krusei ATCC 6258 at 4 ug/ml by broth dilution method; type: functional, organism-based
[7] = tested on: Candida tropicalis; assay: Antifungal activity against Candida tropicalis ATCC 750 at 4 ug/ml by broth dilution method; type: functional, organism-based
[8] = tested on: Cryptococcus neoformans; assay: Antifungal activity against Cryptococcus neoformans ATCC 34664 at 4 ug/ml by broth dilution method; type: functional, organism-based
[9] = tested on: Candida albicans; assay: Antifungal activity against Candida albicans ATCC 24433 at 8 ug/ml by broth dilution method; type: functional, organism-based
[10] = tested on: Cryptococcus neoformans; assay: Antifungal activity against Cryptococcus neoformans ATCC 34664 at 8 ug/ml by broth dilution method; type: functional, organism-based
[11] = tested on: Aspergillus niger; assay: Antifungal activity against Aspergillus niger ATCC 16404 at 8 ug/ml by broth dilution method; type: functional, organism-based
[12] = tested on: Fusarium proliferatum; assay: Antifungal activity against Fusarium proliferatum ATCC 10052 at 8 ug/ml by broth dilution method; type: functional, organism-based
[13] = tested on: Aspergillus fumigatus; assay: Antifungal activity against Aspergillus fumigatus ATCC 46645 at 8 ug/ml by broth dilution method; type: functional, organism-based
[14] = tested on: Pichia kudriavzevii; assay: Antifungal activity against Candida krusei ATCC 6258 at 8 ug/ml by broth dilution method; type: functional, organism-based
[15] = tested on: Nakaseomyces glabratus; assay: Antifungal activity against Candida glabrata ATCC 90030 at 8 ug/ml by broth dilution method; type: functional, organism-based
[16] = tested on: Candida tropicalis; assay: Antifungal activity against Candida tropicalis ATCC 750 by broth dilution method; type: functional
[17] = tested on: Candida albicans; assay: Antifungal activity against Candida albicans ATCC 24433 by broth dilution method; type: functional
[18] = tested on: Nakaseomyces glabratus; assay: Antifungal activity against Candida glabrata ATCC 90030 by broth dilution method; type: functional
[19] = tested on: Cryptococcus neoformans; assay: Antifungal activity against Cryptococcus neoformans ATCC 34664 by broth dilution method; type: functional
[20] = tested on: Pichia kudriavzevii; assay: Antifungal activity against Candida krusei ATCC 6258 by broth dilution method; type: functional
[21] = tested on: Pichia kudriavzevii; assay: Antifungal activity against Candida krusei ATCC 6258 at 16 ug/ml by broth dilution method; type: functional, organism-based
[22] = tested on: Aspergillus fumigatus; assay: Antifungal activity against Aspergillus fumigatus ATCC 46645 at 128 ug/ml by broth dilution method; type: functional, organism-based
[23] = tested on: Fusarium proliferatum; assay: Antifungal activity against Fusarium proliferatum ATCC 10052 at 128 ug/ml by broth dilution method; type: functional, organism-based
[24] = tested on: Aspergillus niger; assay: Antifungal activity against Aspergillus niger ATCC 16404 at 128 ug/ml by broth dilution method; type: functional, organism-based

`O=C1OCC(c2ccc(F)cc2F)=C1c1ccc(Cl)c(Cl)c1` was tested. Which Activity [1] did it give?
Its Activity is “inactive”.

What about the Activity [2] of the same compound?
The Activity was “inactive”.

What about the Activity [3] of the same compound?
The Activity was “inactive”.

And the Activity [4]?
Its Activity is “inactive”.

And the Activity [5]?
Its Activity is “inactive”.

And the Activity [6]?
The Activity was “inactive”.

And the Activity [7]?
The Activity was “inactive”.

And the Activity [8]?
Its Activity is “inactive”.

Which results are given for `O=C1OCC(c2ccc(F)cc2F)=C1c1ccc(Cl)cc1`?
Activity [9]: inactive; Activity [10]: inactive; Activity [11]: inactive; Activity [12]: inactive; Activity [13]: inactive; Activity [14]: inactive; Activity [15]: inactive

`O=C1OCC(c2ccccc2)=C1c1ccc(OCC(O)(Cn2cncn2)c2ccc(F)cc2F)cc1` (racemic) was tested. Which Activity [1] did it give?
The Activity was “inactive”.

And the Activity [2]?
The Activity was “inactive”.

What about the MIC50 [16] of the same compound?
The MIC50 was 2 µg/mL (≈ 4.09 µM).

What about the Activity [4] of the same compound?
Its Activity is “inactive”.

What about the Activity [6] of the same compound?
Its Activity is “inactive”.

And the MIC50 [17]?
Its MIC50 is 0.5 µg/mL (≈ 1.02 µM).

And the MIC50 [18]?
The MIC50 was 0.5 µg/mL (≈ 1.02 µM).

And the Activity [8]?
Its Activity is “inactive”.

With `COc1ccc(C2=C(c3ccc(OCC(O)(Cn4cncn4)c4ccc(F)cc4F)cc3)C(=O)OC2)cc1` (racemic) as the compound, how does the Activity [11] read?
The Activity was “inactive”.

What about the MIC50 [16] of the same compound?
Its MIC50 is 4 µg/mL (≈ 7.7 µM).

And the Activity [12]?
The Activity was “inactive”.

And the Activity [13]?
Its Activity is “inactive”.

What about the MIC50 [19] of the same compound?
Its MIC50 is 2 µg/mL (≈ 3.85 µM).

What about the MIC50 [17] of the same compound?
Its MIC50 is 1 µg/mL (≈ 1.92 µM).

And the Activity [14]?
The Activity was “inactive”.

And the MIC50 [18]?
The MIC50 was 1 µg/mL (≈ 1.92 µM).

What does the source list for `Cc1ccc(C2=C(c3ccc(OCC(O)(Cn4cncn4)c4ccc(F)cc4F)cc3)C(=O)OC2)cc1` (racemic)?
Activity [1]: inactive; Activity [2]: inactive; MIC50 [16]: 2 µg/mL (≈ 3.97 µM); Activity [4]: inactive; MIC50 [19]: 2 µg/mL (≈ 3.97 µM); Activity [6]: inactive; MIC50 [17]: 0.5 µg/mL (≈ 0.993 µM); MIC50 [18]: 1 µg/mL (≈ 1.99 µM)

With `O=C1OCC(c2ccc(F)cc2)=C1c1ccc(OCC(O)(Cn2cncn2)c2ccc(F)cc2F)cc1` (racemic) as the compound, how does the Activity [11] read?
The Activity was “inactive”.

And the MIC50 [16]?
The MIC50 was 1 µg/mL (≈ 1.97 µM).

What about the Activity [12] of the same compound?
Its Activity is “inactive”.

What about the Activity [13] of the same compound?
The Activity was “inactive”.

What about the MIC50 [19] of the same compound?
Its MIC50 is 1 µg/mL (≈ 1.97 µM).

And the MIC50 [17]?
The MIC50 was 0.25 µg/mL (≈ 0.493 µM).

What about the MIC50 [20] of the same compound?
Its MIC50 is 8 µg/mL (≈ 15.8 µM).

And the MIC50 [18]?
Its MIC50 is 0.5 µg/mL (≈ 0.985 µM).

Which results are given for `O=C1OCC(c2ccc(F)cc2F)=C1c1ccc(OCC(O)(Cn2cncn2)c2ccc(F)cc2F)cc1` (racemic)?
Activity [11]: inactive; MIC50 [16]: 2 µg/mL (≈ 3.81 µM); Activity [12]: inactive; Activity [13]: inactive; MIC50 [19]: 2 µg/mL (≈ 3.81 µM); MIC50 [17]: 0.5 µg/mL (≈ 0.952 µM); MIC50 [20]: 8 µg/mL (≈ 15.2 µM); MIC50 [18]: 0.5 µg/mL (≈ 0.952 µM)

What does the source list for `O=C1OCC(c2ccc(Br)cc2)=C1c1ccc(OCC(O)(Cn2cncn2)c2ccc(F)cc2F)cc1` (racemic)?
Activity [11]: inactive; MIC50 [16]: 4 µg/mL (≈ 7.04 µM); Activity [12]: inactive; Activity [13]: inactive; MIC50 [19]: 1 µg/mL (≈ 1.76 µM); MIC50 [17]: 0.5 µg/mL (≈ 0.88 µM); MIC50 [20]: 8 µg/mL (≈ 14.1 µM); MIC50 [18]: 2 µg/mL (≈ 3.52 µM)

What does the source list for `COc1cc(C2=C(c3ccc(F)cc3)COC2=O)ccc1OCC(O)(Cn1cncn1)c1ccc(F)cc1F` (racemic)?
Activity [11]: inactive; MIC50 [16]: 2 µg/mL (≈ 3.72 µM); Activity [21]: inactive; Activity [12]: inactive; Activity [13]: inactive; MIC50 [19]: 2 µg/mL (≈ 3.72 µM); MIC50 [17]: 0.5 µg/mL (≈ 0.93 µM); MIC50 [18]: 0.5 µg/mL (≈ 0.93 µM)

For `COc1cc(C2=C(c3ccc(Br)cc3)COC2=O)ccc1OCC(O)(Cn1cncn1)c1ccc(F)cc1F` (racemic), which Activity [1] is on record?
Its Activity is “inactive”.

What about the Activity [2] of the same compound?
The Activity was “inactive”.

What about the MIC50 [16] of the same compound?
Its MIC50 is 4 µg/mL (≈ 6.68 µM).

What about the Activity [4] of the same compound?
Its Activity is “inactive”.

What about the MIC50 [19] of the same compound?
The MIC50 was 8 µg/mL (≈ 13.4 µM).

What about the Activity [6] of the same compound?
The Activity was “inactive”.

What about the MIC50 [17] of the same compound?
Its MIC50 is 1 µg/mL (≈ 1.67 µM).

What about the MIC50 [18] of the same compound?
The MIC50 was 2 µg/mL (≈ 3.34 µM).

Which Activity [10] does the source give for `O=C1OCC(c2cccs2)=C1c1ccc(OCC(O)(Cn2cncn2)c2ccc(F)cc2F)cc1` (racemic) here?
Its Activity is “inactive”.

And the Activity [11]?
Its Activity is “inactive”.

And the MIC50 [16]?
The MIC50 was 2 µg/mL (≈ 4.04 µM).

What about the Activity [12] of the same compound?
Its Activity is “inactive”.

And the Activity [13]?
The Activity was “inactive”.

And the MIC50 [17]?
The MIC50 was 0.5 µg/mL (≈ 1.01 µM).

What about the Activity [14] of the same compound?
Its Activity is “inactive”.

What about the MIC50 [18] of the same compound?
The MIC50 was 0.5 µg/mL (≈ 1.01 µM).

What does the source list for `O=Cc1ccc(OCC(O)(Cn2cncn2)c2ccc(F)cc2F)cc1` (racemic)?
MIC50 [16]: 4 µg/mL (≈ 11.1 µM); Activity [22]: inactive; MIC50 [19]: 2 µg/mL (≈ 5.57 µM); Activity [23]: inactive; Activity [24]: inactive; MIC50 [17]: 0.5 µg/mL (≈ 1.39 µM); MIC50 [20]: 16 µg/mL (≈ 44.5 µM); MIC50 [18]: 0.5 µg/mL (≈ 1.39 µM)
